Assay results as given in patent US20040122083A1, “Antitubulin assembly and cell growth inhibitor denominated "dioxostatin"” (priority 2003, published 2004).
Converted amounts (≈) assume the structure as drawn. Like-named read-outs stand apart in the source and are kept apart here.

Legend:
BXPC-3 = assay: Human cancer cell line growth inhibition, Pancreas-a BXPC-3; assay type: cell-based; settings: for GI50: Homo sapiens
SK-N-SH = assay: Human cancer cell line growth inhibition, Neuroblast SK-N-SH; assay type: cell-based; settings: for GI50: Homo sapiens
SW1736 = assay: Human cancer cell line growth inhibition, Thyroid ca SW1736; assay type: cell-based; settings: for GI50: Homo sapiens, SW-1736
NCI-H460 = assay: Human cancer cell line growth inhibition, Lung-NSC NCI-H460; assay type: cell-based; settings: for GI50: Homo sapiens
FADU = assay: Human cancer cell line growth inhibition, Pharynx-sq FADU; assay type: cell-based; settings: for GI50: Homo sapiens, FaDu
DU-145 = assay: Human cancer cell line growth inhibition, Prostate DU-145; assay type: cell-based; settings: for GI50: Homo sapiens
OVCAR-3 = assay: Human cancer cell line growth inhibition, Ovarian OVCAR-3; assay type: cell-based; settings: for GI50: Homo sapiens
SF-295 = assay: Human cancer cell line growth inhibition, CNS SF-295; assay type: cell-based; settings: for GI50: Homo sapiens
A498 = assay: Human cancer cell line growth inhibition, Renal A498; assay type: cell-based; settings: for GI50: Homo sapiens
KM20L2 = assay: Human cancer cell line growth inhibition, Colon KM20L2; assay type: cell-based; settings: for GI50: Homo sapiens, KM-20L2
tubulin [1] = target: T1, tubulin (Bos taurus, UniProt P81947+Q6B856); assay: Inhibition of tubulin polymerization (assembly); assay type: biochemical
Protocol: (§1) Tubulin assays. The tubulin polymerizion and colchicine binding experiments were performed as described previously (See: Verdier-Pinard, P.; Lai, J -Y.; Yoo, H -D.; Yu, J.; Marquez, B.; Nagle, D. G.; Nambu, M.; White, J. D.; Falck, J. R; Gerwick, W. H.; Day, B. W.; Hamel, E. Mol. Pharmacol. 1998, 53, 62-76). However, in the polymerization assays Beckman DU7400/7500 spectrophotometers equipped with “high performance” temperature controllers were used. […] Temperature changes were, however, more rapid, with the jump from the lower temperature to 30EC taking about 20 sec and the reverse jump about 100 sec.

Streptococcus pneumoniae = assay: Disk susceptibility testing; assay type: cell-based
From the text: (§2) Antimicrobial susceptibility testing. […] Eur. J. Med. Chem. 1998, 33, 71-77).

[2] = system: the ten bacteria and fungi tested; assay: Disk susceptibility testing, whole panel; assay type: cell-based; settings: at 100 μg/disk
From the text: as §2

tubulin [3] = target: T1, tubulin; assay: Inhibition of [3H]colchicine binding to tubulin
Protocol: as §1

Neisseria gonorrhoeae = assay: Disk susceptibility testing; assay type: cell-based
From the text: as §2

Aqueous solubility = assay type: physicochemical
Staphylococcus aureus = assay: Disk susceptibility testing; assay type: cell-based
From the text: as §2

colchicine binding = settings: at equal concentrations; cited from earlier work
solid tumors = settings: cited from earlier work
Candida albicans = system: Candida albicans
From the text: as §2

Cryptococcus neoformans = system: Cryptococcus neoformans
From the text: as §2

[4] = system: Stenotrophomonas maltophilia
From the text: as §2

cancer cell growth = settings: cited from earlier work; for activity as cancer cell growth inhibitors: initial finding
[5] = Table II, tubulin concentration 10 μM, read-out: Inhibition of tubulin Polymerization IC50 ± SD
[6] = Table IV and text, read-out: Inhibition of Tubulin Assembly IC50 ± SD
[7] = read-out: % Inhibition Colchicine binding ± SD

T1 sequence (Q6B856 whole entry): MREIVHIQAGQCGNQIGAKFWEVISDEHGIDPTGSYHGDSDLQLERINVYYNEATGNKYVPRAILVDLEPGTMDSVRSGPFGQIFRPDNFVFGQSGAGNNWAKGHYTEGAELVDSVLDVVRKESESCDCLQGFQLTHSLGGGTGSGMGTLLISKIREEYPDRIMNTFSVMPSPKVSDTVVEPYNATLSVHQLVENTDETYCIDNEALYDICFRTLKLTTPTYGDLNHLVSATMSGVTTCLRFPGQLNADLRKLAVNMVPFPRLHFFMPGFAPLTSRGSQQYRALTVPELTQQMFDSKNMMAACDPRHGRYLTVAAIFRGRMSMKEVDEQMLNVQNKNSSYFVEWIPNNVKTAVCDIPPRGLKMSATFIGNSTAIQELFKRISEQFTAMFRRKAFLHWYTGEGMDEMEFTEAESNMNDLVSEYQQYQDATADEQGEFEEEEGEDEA
T1 sequence (P81947 whole entry): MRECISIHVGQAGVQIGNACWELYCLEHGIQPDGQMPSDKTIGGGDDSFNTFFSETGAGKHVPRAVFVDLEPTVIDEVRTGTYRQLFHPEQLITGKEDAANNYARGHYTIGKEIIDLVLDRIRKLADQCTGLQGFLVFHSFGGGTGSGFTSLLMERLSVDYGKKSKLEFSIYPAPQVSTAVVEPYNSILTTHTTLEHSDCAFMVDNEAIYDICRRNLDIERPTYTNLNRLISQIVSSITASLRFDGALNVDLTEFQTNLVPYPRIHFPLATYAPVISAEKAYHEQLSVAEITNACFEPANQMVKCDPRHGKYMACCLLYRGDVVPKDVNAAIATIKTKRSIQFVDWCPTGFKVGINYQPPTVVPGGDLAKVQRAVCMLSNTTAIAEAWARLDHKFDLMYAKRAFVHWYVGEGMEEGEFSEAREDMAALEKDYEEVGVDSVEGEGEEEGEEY

Structure (SMILES): COc1ccc([C@@H](O)[C@H](O)c2cc(OC)c(OC)c(OC)c2)cc1O [(R,R)-3a]
- Pancreas-a BXPC-3 GI50 (BXPC-3): >10 µg/mL
- Neuroblast SK-N-SH GI50 (SK-N-SH): 1.5 µg/mL
- Thyroid ca SW1736 GI50 (SW1736): 6.1 µg/mL
- Lung-NSC NCI-H460 GI50 (NCI-H460): 4.4 µg/mL
- Pharynx-sq FADU GI50 (FADU): 2.1 µg/mL
- Prostate DU-145 GI50 (DU-145): 3.5 µg/mL
- Ovarian OVCAR-3 GI50 (OVCAR-3): 4.5 µg/mL
- CNS SF-295 GI50 (SF-295): 5.7 µg/mL
- Renal A498 GI50 (A498): >10 µg/mL
- Colon KM20L2 GI50 (KM20L2): 8.2 µg/mL
- IC50 (tubulin [1]; [5]): > 40 µM
- Minimum inhibitory Concentration (Streptococcus pneumoniae): 50-100 μg/disk

Structure (SMILES): COc1ccc([C@@H](O)[C@H](O)c2cc(OC)c(OC)c(OC)c2)c(O)c1O [(R,R)-3b, (1R,2R)-1,2-Dihydroxy-1-(2′,3′-dihydroxy-4′-methoxyphenyl)-2-(3″,4″,5″-trimethoxyphenyl)-ethane]
- GI50 (BXPC-3): > 10 µg/mL
- GI50 (SK-N-SH): 3.1 µg/mL (≈ 8.46 µM)
- GI50 (SW1736): > 10 µg/mL
- GI50 (NCI-H460): 7.9 µg/mL (≈ 21.6 µM)
- GI50 (FADU): 4.9 µg/mL (≈ 13.4 µM)
- GI50 (DU-145): > 10 µg/mL
- GI50 (OVCAR-3): 7.2 µg/mL (≈ 19.7 µM)
- GI50 (SF-295): 2.6 µg/mL (≈ 7.1 µM)
- GI50 (A498): > 10 µg/mL
- GI50 (KM20L2): 7 µg/mL (≈ 19.1 µM)
- Microbe(s) inhibited, whole panel [2]: * (at 100 μg/disk, no inhibition of the ten bacteria and fungi tested)
- melting point: 64 to 66 °C

Structure (SMILES): COc1ccc([C@H]2OCO[C@@H]2c2cc(OC)c(OC)c(OC)c2)c(O)c1O [(R,R)-10a, (4R,5R)-4-(2′,3′-Dihydroxy-4′-methoxyphenyl)-5-(3″,4″,5″-trimethoxyphenyl)-1,3-dioxolane]
- Pancreas-a BXPC-3 GI50 (BXPC-3): >10 µg/mL
- Lung-NSC NCI-H460 GI50 (NCI-H460): >10 µg/mL
- Prostate DU-145 GI50 (DU-145): >10 µg/mL
- Ovarian OVCAR-3 GI50 (OVCAR-3): >10 µg/mL
- CNS SF-295 GI50 (SF-295): 5.0 µg/mL
- Colon KM20L2 GI50 (KM20L2): >10 µg/mL
- IC50 (tubulin [1]; [6]): 5.7 ± 0.8 µM
- % Inhibition Colchicine binding ± SD (tubulin [3]; 5 μM Inhibitor): 14 ± 5%
- % Inhibition Colchicine binding ± SD (tubulin [3]; 50 μM Inhibitor): 57 ± 0.8%

Structure (SMILES): COc1ccc([C@H](O)[C@@H](O)c2cc(OC)c(OC)c(OC)c2)cc1O [(S,S)-4a]
- Pancreas-a BXPC-3 GI50 (BXPC-3): 3.9 µg/mL
- Neuroblast SK-N-SH GI50 (SK-N-SH): 0.28 µg/mL
- Thyroid ca SW1736 GI50 (SW1736): 1.8 µg/mL
- Lung-NSC NCI-H460 GI50 (NCI-H460): 2.5 µg/mL
- Pharynx-sq FADU GI50 (FADU): 0.60 µg/mL
- Prostate DU-145 GI50 (DU-145): 2.1 µg/mL
- Ovarian OVCAR-3 GI50 (OVCAR-3): 0.38 µg/mL
- CNS SF-295 GI50 (SF-295): 0.52 µg/mL
- Renal A498 GI50 (A498): 0.91 µg/mL
- Colon KM20L2 GI50 (KM20L2): 0.52 µg/mL
- IC50 (tubulin [1]; [5]): 14 ± 2 µM
- Minimum inhibitory Concentration (Streptococcus pneumoniae): 25-50 μg/disk

Structure (SMILES): COc1ccc([C@H](O)[C@@H](O)c2cc(OC)c(OC)c(OC)c2)c(O)c1O [(S,S)-4b]
- GI50 (BXPC-3): > 10 µg/mL
- GI50 (SK-N-SH): 3.8 µg/mL (≈ 10.4 µM)
- GI50 (SW1736): > 10 µg/mL
- GI50 (NCI-H460): > 10 µg/mL
- GI50 (FADU): > 10 µg/mL
- GI50 (DU-145): > 10 µg/mL
- GI50 (OVCAR-3): > 10 µg/mL
- GI50 (SF-295): 2.9 µg/mL (≈ 7.92 µM)
- GI50 (A498): > 10 µg/mL
- GI50 (KM20L2): > 10 µg/mL
- Minimum inhibitory Concentration (Neisseria gonorrhoeae): 25-50 μg/disk
- melting point: 64 to 66 °C

Structure (SMILES): COc1ccc([C@@H]2OCO[C@H]2c2cc(OC)c(OC)c(OC)c2)c(O)c1O [(S,S)-9a, (4S,5S)-4-(2′,3′-dihydroxy-4′-methoxyphenyl)-5-(3″,4″,5″-trimethoxyphenyl)-1,3-dioxolane]
- Pancreas-a BXPC-3 GI50 (BXPC-3): 5.4 µg/mL
- Lung-NSC NCI-H460 GI50 (NCI-H460): >10 µg/mL
- Prostate DU-145 GI50 (DU-145): 3.0 µg/mL
- Ovarian OVCAR-3 GI50 (OVCAR-3): 4.3 µg/mL
- CNS SF-295 GI50 (SF-295): 2.9 µg/mL
- Colon KM20L2 GI50 (KM20L2): 5.0 µg/mL
- IC50 (tubulin [1]; [6]): 0.59 µM
- % Inhibition Colchicine binding ± SD (tubulin [3]; 1 μM Inhibitor): 67 ± 6%
- % Inhibition Colchicine binding ± SD (tubulin [3]; 5 μM Inhibitor): 91 ± 1%

Structure (SMILES): COc1cc([C@@H]2OCO[C@H]2c2ccc(OC)c(OP(=O)([O-])[O-])c2OP(=O)([O-])[O-])cc(OC)c1OC.[Na+].[Na+].[Na+].[Na+] [(S,S)-21, Tetrasodium-(4S,5S)-4-(2′,3′-O-diphosphonate-4′-methoxyphenyl)-5-(3″,4″,5″-trimethoxyphenyl)-1,3-dioxolane]
- GI50 (BXPC-3): > 10 µg/mL
- GI50 (NCI-H460): 3.4 µg/mL
- GI50 (DU-145): 2.9 µg/mL
- GI50 (OVCAR-3): 2.6 µg/mL
- GI50 (SF-295): 3.2 µg/mL
- GI50 (KM20L2): > 10 µg/mL
- solubility (Aqueous solubility): > 35 mg/mL

Structure (SMILES): COc1ccc(/C=C\c2cc(OC)c(OC)c(OC)c2)c(O)c1O [Compound 1a, combretastatin A-1, reference compound]
- inhibition at 1 µM (tubulin [3]; [7]): 89 ± 3%
- inhibition at 5 µM (tubulin [3]; [7]): 99.6%
- Minimum inhibitory Concentration (Neisseria gonorrhoeae): 25-50 μg/disk
- Minimum inhibitory Concentration (Staphylococcus aureus): 50-100 μg/disk
- inhibition of colchicine binding (colchicine binding): ~99%
- degree of reduction, vascular shutdown within solid tumors (solid tumors): 50%

Structure (SMILES): COc1ccc(/C=C\c2cc(OC)c(OC)c(OC)c2)cc1O [Compound 1b, combretastatin A-4]
- degree of reduction, vascular shutdown within solid tumors (solid tumors): 70%

Structure (SMILES): COc1ccc(/C=C\c2cc(OC)c(OC)c(OC)c2)cc1OP(=O)([O-])[O-].[Na+].[Na+] [Compound 1d]
- vascular shutdown within metastatic tumors (solid tumors; doses one-tenth of the maximum tolerated dose): complete vascular shutdown

Structure (SMILES): COc1ccc(/C=C/c2cc(OC)c(OC)c(OC)c2)c(O)c1O [Compound 2b, E-combretastatin A-1]
- Minimum inhibitory Concentration (Neisseria gonorrhoeae): 6.25-12.5 μg/disk
- Minimum inhibitory Concentration (Streptococcus pneumoniae): 50-100 μg/disk
- Minimum inhibitory Concentration (Candida albicans): 50-100 μg/disk
- Minimum inhibitory Concentration (Cryptococcus neoformans): 50-100 μg/disk
- Minimum inhibitory Concentration [4]: 50-100 μg/disk
- activity as cancer cell growth inhibitors (cancer cell growth): moderately active

Structure (SMILES): COc1ccc(/C=C/c2cc(OC)c(OC)c(OC)c2)cc1O [Compound 2d]
- Microbe(s) inhibited, whole panel [2]: * (at 100 μg/disk, no inhibition of the ten bacteria and fungi tested)
- activity as cancer cell growth inhibitor (cancer cell growth; freshly prepared solutions in dimethyl sulfoxide): inactive
- activity as cancer cell growth inhibitors (cancer cell growth): moderately active
